# In PubChem BioAssay AID2060896 (Molecular Pharmacology Branch, DTP, NCI, 2025):
# System: 941728-121-R-J1-PDC complex spheroid viability
# Test: Anticancer human tumor 941728-121-R-J1-PDC patient-derived lung adenocarcinoma cell line growth inhibition [RAS]
# Conditions: for IC50: curve of first compound; for viability, T/C: stronger effect = lower value
# Summary of the method: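 Tumour cells grown as complex spheroids with HUVEC endothelial cells and mesenchymal stem cells, treated with RAS pathway inhibitor combinations. Each agent spans half-log steps from near clinical Cmax, or 10 microM where Cmax is unknown.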
# 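Further: spheroids exposed to compounds for 7 days before readout.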
# 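Wherever viability, T/C is given: 100% = DMSO vehicle control viability.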
smiles,measurement,setting,value
CC1(C)CCC(Nc2ncc(C(F)(F)F)c(-c3c[nH]c4c(P(C)(C)=O)c(C#N)ccc34)n2)CN1 (configuration not stated) + C=CC(=O)N1CCN(c2nc(OCC3CCCN3C)nc3c(F)c(-c4nc(N)cc(C)c4C(F)(F)F)c(Cl)cc23)C(C)C1,IC50,second compound 0.00316 µM,< 0.949 nM
same,IC50,second compound 0.01 µM,< 0.949 nM
same,IC50,second compound 0.0316 µM,< 0.949 nM
same,IC50,second compound 0.1 µM,< 0.949 nM
same,IC50,second compound 0.316 µM,< 0.949 nM
same,IC50,second compound 1 µM,< 0.949 nM
same,"viability, T/C","second compound 0.00316 µM, first compound 0.000949 µM",17.1%
same,"viability, T/C","second compound 0.00316 µM, first compound 0.003 µM",18.1%
same,"viability, T/C","second compound 0.00316 µM, first compound 0.00949 µM",19.7%
same,"viability, T/C","second compound 0.00316 µM, first compound 0.03 µM",19%
same,"viability, T/C","second compound 0.00316 µM, first compound 0.0949 µM",20.5%
same,"viability, T/C","second compound 0.00316 µM, first compound 0.3 µM",20.9%
same,"viability, T/C","second compound 0.01 µM, first compound 0.000949 µM",18.9%
same,"viability, T/C","second compound 0.01 µM, first compound 0.003 µM",16.2%
same,"viability, T/C","second compound 0.01 µM, first compound 0.00949 µM",17.9%
same,"viability, T/C","second compound 0.01 µM, first compound 0.03 µM",17.8%
same,"viability, T/C","second compound 0.01 µM, first compound 0.0949 µM",17.9%
same,"viability, T/C","second compound 0.01 µM, first compound 0.3 µM",16.8%
same,"viability, T/C","second compound 0.0316 µM, first compound 0.000949 µM",14.8%
same,"viability, T/C","second compound 0.0316 µM, first compound 0.003 µM",16.8%
same,"viability, T/C","second compound 0.0316 µM, first compound 0.00949 µM",17.8%
same,"viability, T/C","second compound 0.0316 µM, first compound 0.03 µM",17.6%
same,"viability, T/C","second compound 0.0316 µM, first compound 0.0949 µM",17.7%
same,"viability, T/C","second compound 0.0316 µM, first compound 0.3 µM",17.7%
same,"viability, T/C","second compound 0.1 µM, first compound 0.000949 µM",15.4%
same,"viability, T/C","second compound 0.1 µM, first compound 0.003 µM",16.9%
same,"viability, T/C","second compound 0.1 µM, first compound 0.00949 µM",17%
same,"viability, T/C","second compound 0.1 µM, first compound 0.03 µM",17.2%
same,"viability, T/C","second compound 0.1 µM, first compound 0.0949 µM",17.8%
same,"viability, T/C","second compound 0.1 µM, first compound 0.3 µM",19.1%
same,"viability, T/C","second compound 0.316 µM, first compound 0.000949 µM",15.3%
same,"viability, T/C","second compound 0.316 µM, first compound 0.003 µM",15.8%
same,"viability, T/C","second compound 0.316 µM, first compound 0.00949 µM",15.8%
same,"viability, T/C","second compound 0.316 µM, first compound 0.03 µM",17.7%
same,"viability, T/C","second compound 0.316 µM, first compound 0.0949 µM",19.3%
same,"viability, T/C","second compound 0.316 µM, first compound 0.3 µM",18.1%
same,"viability, T/C","second compound 1 µM, first compound 0.000949 µM",16.6%
same,"viability, T/C","second compound 1 µM, first compound 0.003 µM",16.6%
same,"viability, T/C","second compound 1 µM, first compound 0.00949 µM",18.8%
same,"viability, T/C","second compound 1 µM, first compound 0.03 µM",19.3%
same,"viability, T/C","second compound 1 µM, first compound 0.0949 µM",18.6%
same,"viability, T/C","second compound 1 µM, first compound 0.3 µM",21%
